Experiments:
Assay type in all cases: in vivo, human
[1] = Safety and tolerability: adverse events in the treatment-emergent period, part 1 of phase 2 trial in PD patients carrying a GBA mutation
Description: This clinical trial is a 3-year, phase 2, randomised, double-blinded, placebo-controlled, multicenter study of Compound 2 in participants with early-stage PD carrying a GBA mutation. The trial is divided into 2 consecutive parts: part 1 is a dose escalation study (described below) of safety, pharmacokinetics, and pharmacodynamics of 3 doses using 3 sequential cohorts; part 2 is an ongoing 2-arm study of efficacy and safety of Compound 2.
Participants were randomised to 3 doses of once-daily orally administered Compound 2 or placebo, in sequential cohort design, and were followed up to 36 weeks (52 weeks for Japanese participants). Participants in the low-dose group received 4 mg of Compound 2 as a once daily oral dose; participants in the mid-dose group received 8 mg of Compound 2 a once daily oral dose; and participants in the high-dose group received 15 mg of Compound 2 a once daily oral dose.
The primary outcome in part 1 of trial was an assessment of safety and tolerability of orally administered Compound 2 versus placebo through Week 4 (primary analysis period for each sequential cohort). In addition, safety assessments were recorded for every 4 weeks until completion. Safety was assessed by physical examination; neurological examination; clinical laboratory evaluations conducted at a central laboratory, including haematology, biochemistry, urinalysis, and serology tests; vital signs; assessment of AEs and concomitant medication; ophthalmological examination; and electrocardiogram. AEs, serious Aes, and AEs of special interest (AESI) were recorded throughout the study. Serious AEs were defined as fatal, or life threatening, requiring or prolonging inpatient hospitalisation, or disabling/incapacitating, congenital anomalies, or medically important events (e.g. malignancies or chronic neurodegenerative diseases). AESI included new or worsening lens opacities and cataracts (as assessed by ophthalmology evaluations at screening and at Weeks 4, 12, 28, 36 [Weeks 4, 12, 36, 52 for Japanese participants]), pregnancy events, increase of alanine aminotransferase, or symptomatic overdose with study drug.
During the study, 29 participants were randomised to Compound 2 (Japan, n=9; ROW, n=13) or placebo (n=3; n=4). Eight (89%) Japanese and 12 (92%) ROW Compound 2-treated participants experienced ≥1 adverse event (AE) versus 2 (67%) and 4 (100%) participants from the respective placebo groups. […] Two Compound 2-treated ROW participants discontinued due to AEs (confusional state and panic attack).

glucosylceramide (GL-1) = assay: Plasma glucosylceramide (GL-1) levels, pharmacodynamics
Description: Analyses were based on all available data from participants who enrolled in part 1 of the trial and were randomised to receive either Compound 2 or placebo for up to 52 weeks for Japanese participants and 36 weeks for the ROW population. As part 1 was an exploratory, dose-escalation study, the sample size was not based on a statistical power calculation. Participants included in the primary safety analyses were those who were randomized and received at least one dose of Compound 2 or placebo. A data monitoring committee was responsible for overseeing the safety of patients and the risk/benefit ratio throughout the study. Duration of exposure to Compound 2 was different among the doses, as per the sequential cohort design, with the low- and high-dose cohorts commencing the study first and last, respectively. For pharmacokinetics, plasma parameters were calculated using noncompartmental methods, from plasma Compound 2 concentrations obtained after single dose administration. AUC0-24 and AUC0-48 were calculated using the trapezoidal method over a predefined time period of 24 hours or 48 hours, respectively. CLss/F was calculated using the following equation: CLss/F=Dose/AUCτ, where τ is the dosing interval. For pharmacodynamics, percent reduction of plasma or CSF GL-1 from baseline was calculated as (value−baseline)/baseline×100. Formal statistical testing was not conducted on MDS-UPDRS scale assessments.
In exploratory analyses, Compound 2 pharmacodynamics in plasma and CSF were assessed by mean percent change in GL-1 levels from baseline through Week 4. GL-1 levels were assessed in plasma and CSF samples collected at the day of randomisation and Week 4, with plasma GL-1 levels also assessed at Week 2.
Concentrations of GL-1 in plasma and CSF were determined using a liquid chromatography tandem mass spectrometry method. Secondary pharmacokinetic outcomes were evaluated over a 4-week period of once-daily Compound 2 dosing (Table 7).

[2] = test system: participants with early-stage PD carrying a GBA mutation; assay: MDS-UPDRS (parts II and III) scores in OFF state; conditions: Combined Japan + ROW, all Compound 2 doses, N = 22, OFF state
Protocol: MDS-UPDRS (parts II [motor experiences of daily living; 13 items] and III [motor examination; 18 items]) scores are reported through Week 8. The MDS-UPDRS scale was assessed during the OFF state, with no PD medication taken for ≥12 hours prior.
The changes from baseline in MDS-UPDRS (parts II and III) scores at week 8 were assessed for participants in part 1 of the clinical study described in Example 2.

[3] = Japan, High 15 mg once daily oral, n = 3
[4] = Japan, Low 4 mg once daily oral, n = 3
[5] = Japan, Mid 8 mg once daily oral, n = 3
[6] = ROW, High 15 mg once daily oral, n = 4
[7] = ROW, Low 4 mg once daily oral, n = 4
[8] = ROW, Mid 8 mg once daily oral, n = 5

## CC(C)(NC(=O)O[C@@H]1CN2CCC1CC2)c1csc(-c2ccc(F)cc2)n1 [Compound 2, (S)-quinuclidin-3-yl (2-(2-(4-fluorophenyl)thiazol-4-yl)propan-2-yl)carbamate]
[1]; [3]
  Number of participants with AEs: Infections and infestations: 1
[1]; [4]
  Number of participants with AEs: Infections and infestations: 2
[1]; [5]
  Number of participants with AEs: Infections and infestations: 0
[1]; [6]
  Number of participants with AEs: Infections and infestations: 1
[1]; [7]
  Number of participants with AEs: Infections and infestations: 0
[1]; [8]
  Number of participants with AEs: Infections and infestations: 0
[1]; all participants, part 1
  serious AEs or deaths: no serious AEs or deaths occurred
[1]; human, in vivo
  participants who discontinued due to AEs (confusional state and panic attack): Two
Glucosylceramide (GL-1); [3]
  Plasma GL-1, Week 2 (mean): 1.231 µg/mL
  Plasma GL-1, Week 2, Change from baseline (%) (mean): −77.2%
  Plasma GL-1, Week 2, Change from baseline (mean): -4.285 µg/mL
  Plasma GL-1, Week 4 (mean): 1.149 µg/mL
  Plasma GL-1, Week 4, Change from baseline (%) (mean): −79.3%
  Plasma GL-1, Week 4, Change from baseline (mean): -4.368 µg/mL
Glucosylceramide (GL-1); [4]
  Plasma GL-1, Week 2 (mean): 2.230 µg/mL
  Plasma GL-1, Week 2, Change from baseline (%) (mean): −63.6%
  Plasma GL-1, Week 2, Change from baseline (mean): -3.797 µg/mL
  Plasma GL-1, Week 4 (mean): 2.097 µg/mL
  Plasma GL-1, Week 4, Change from baseline (%) (mean): −66.1%
  Plasma GL-1, Week 4, Change from baseline (mean): -3.930 µg/mL
Glucosylceramide (GL-1); [5]
  Plasma GL-1, Week 2 (mean): 1.507 µg/mL
  Plasma GL-1, Week 2, Change from baseline (%) (mean): −67.5%
  Plasma GL-1, Week 2, Change from baseline (mean): -3.133 µg/mL
  Plasma GL-1, Week 4 (mean): 1.340 µg/mL
  Plasma GL-1, Week 4, Change from baseline (%) (mean): −70.7%
  Plasma GL-1, Week 4, Change from baseline (mean): -3.300 µg/mL
Glucosylceramide (GL-1); Japanese cohort, high-dose 15 mg
  mean reduction in plasma GL-1 at Week 4: 79.3%
Glucosylceramide (GL-1); Japanese cohort, low-dose 4 mg
  mean reduction in plasma GL-1 at Week 4: 66.1%
Glucosylceramide (GL-1); Japanese cohort, medium-dose 8 mg
  mean reduction in plasma GL-1 at Week 4: 70.7%
Glucosylceramide (GL-1); ROW participants, high-dose 15 mg
  mean reduction in plasma GL-1 at Week 4: 77.7%
Glucosylceramide (GL-1); ROW participants, low-dose 4 mg
  mean reduction in plasma GL-1 at Week 4: 59.0%
Glucosylceramide (GL-1); ROW participants, medium-dose 8 mg
  mean reduction in plasma GL-1 at Week 4: 71.0%
Glucosylceramide (GL-1); [6]
  Plasma GL-1, Week 2 (mean): 1.469 µg/mL
  Plasma GL-1, Week 2, Change from baseline (%) (mean): −73.9%
  Plasma GL-1, Week 2, Change from baseline (mean): -4.119 µg/mL
  Plasma GL-1, Week 4 (mean): 1.253 µg/mL
  Plasma GL-1, Week 4, Change from baseline (%) (mean): −77.7%
  Plasma GL-1, Week 4, Change from baseline (mean): -4.335 µg/mL
Glucosylceramide (GL-1); [7]
  Plasma GL-1, Week 2 (mean): 2.340 µg/mL
  Plasma GL-1, Week 2, Change from baseline (%) (mean): −54.3%
  Plasma GL-1, Week 2, Change from baseline (mean): -2.815 µg/mL
  Plasma GL-1, Week 4 (mean): 2.093 µg/mL
  Plasma GL-1, Week 4, Change from baseline (%) (mean): −59.0%
  Plasma GL-1, Week 4, Change from baseline (mean): -3.063 µg/mL
Glucosylceramide (GL-1); [8]
  Plasma GL-1, Week 2 (mean): 1.644 µg/mL
  Plasma GL-1, Week 2, Change from baseline (%) (mean): −69.9%
  Plasma GL-1, Week 2, Change from baseline (mean): -3.830 µg/mL
  Plasma GL-1, Week 4 (mean): 1.578 µg/mL
  Plasma GL-1, Week 4, Change from baseline (%) (mean): −71.0%
  Plasma GL-1, Week 4, Change from baseline (mean): -3.896 µg/mL
Glucosylceramide (GL-1); over 4 weeks
  decrease of plasma GL-1 levels from baseline versus dose: dose-dependent manner
[2]
  MDS-UPDRS (part II + III) score, Change from baseline at week 8 (mean): −2.9

From patent publication US20230372313A1, “METHODS FOR REDUCING GLYCOSPHINGOLIPID CONCENTRATION IN BRAIN TISSUE AND METHODS OF TREATMENT OF NEURODEGENERATIVE DISEASES INVOLVING THE SAME” (GENZYME CORPORATION, priority 2020, published 2023)
